Results as given in patent publication US11083725B2 (priority 2014, dated 2021).

Test system: NHBE cells
Experiment: Biolog metabolic array: substrate use by NHBE cells with or without CA09 infection
Format: cell-based, human
Settings: for Substrate use, 590 nm absorbance normalized to zero hour, 1 hr: Biolog PMM2, 1 hr; for Substrate use, 590 nm absorbance normalized to zero hour, 5 hr: Biolog PMM2, 5 hr; for Substrate use, 590 nm absorbance normalized to zero hour, 7 hr: Biolog PMM2, 7 hr; for Substrate use, 590 nm absorbance normalized to zero hour, 0 hr: Biolog PMM2, 0 hr
[1] = Control (uninfected) NHBE cells
[2] = Virus (CA09, MOI 1) infected NHBE cells
[3] = Virus (CA09-infected, MOI 1) NHBE cells

Row | SMILES | 590 nm absorbance normalized to zero hour (substrate use), 1 hr [1] | 590 nm absorbance normalized to zero hour (substrate use), 2 hr [1] | 590 nm absorbance normalized to zero hour (substrate use), 3 hr [1] | 590 nm absorbance normalized to zero hour (substrate use), 4 hr [1] | 590 nm absorbance normalized to zero hour (substrate use), 6 hr [1] | 590 nm absorbance normalized to zero hour (substrate use), 8 hr [1] | 590 nm absorbance normalized to zero hour (substrate use), 9 hr [1] | 590 nm absorbance normalized to zero hour (substrate use), 10 hr [1] | 590 nm absorbance normalized to zero hour (substrate use), 11 hr [1] | Substrate use, 590 nm absorbance normalized to zero hour, 1 hr [1] | Substrate use, 590 nm absorbance normalized to zero hour, 5 hr [1] | Substrate use, 590 nm absorbance normalized to zero hour, 7 hr [1] | Substrate use, 590 nm absorbance normalized to zero hour, 1 hr [2] | Substrate use, 590 nm absorbance normalized to zero hour, 5 hr [2] | Substrate use, 590 nm absorbance normalized to zero hour, 7 hr [2] | 590 nm absorbance normalized to zero hour (substrate use), 1 hr [3] | 590 nm absorbance normalized to zero hour (substrate use), 2 hr [3] | 590 nm absorbance normalized to zero hour (substrate use), 3 hr [3] | 590 nm absorbance normalized to zero hour (substrate use), 4 hr [3] | 590 nm absorbance normalized to zero hour (substrate use), 6 hr [3] | also measured
1 | O=C[C@H](O)[C@@H](O)[C@@H](O)[C@H](O)CO [D-Galactose] | 0.95 | 1.46 | 1.73 | 1.56 | 1.78 | 2.22 | 2.53 | 2.67 | 2.53 | 0.95 | 1.88 | 2.03 | 0.91 | 1.89 | 2.16 | 0.91 | 1.21 | 1.47 | 1.60 | 2.03 | 590 nm absorbance normalized to zero hour (substrate use), 8 hr [3]: 2.29; 590 nm absorbance normalized to zero hour (substrate use), 9 hr [3]: 2.54; 590 nm absorbance normalized to zero hour (substrate use), 10 hr [3]: 2.63; 590 nm absorbance normalized to zero hour (substrate use), 11 hr [3]: 2.86
2 | N[C@@H](C(=O)O)[C@@H](O)[C@H](O)[C@H](O)CO [D-Glucosaminic Acid] | 0.86 | 0.94 | 0.90 | 1.21 | 0.36 | 0.97 | 0.98 | 0.97 | 0.39 | 0.86 | 1.22 | 0.95 | 1.69 | 3.09 | 3.47 | 1.69 | 2.21 | 2.51 | 2.69 | 3.31 | 590 nm absorbance normalized to zero hour (substrate use), 0 hr [1]: 1.00; Substrate use, 590 nm absorbance normalized to zero hour, 0 hr [1]: 1.00; Substrate use, 590 nm absorbance normalized to zero hour, 0 hr [2]: 1.00; 590 nm absorbance normalized to zero hour (substrate use), 0 hr [3]: 1.00; 590 nm absorbance normalized to zero hour (substrate use), 8 hr [3]: 3.57; 590 nm absorbance normalized to zero hour (substrate use), 9 hr [3]: 3.89; 590 nm absorbance normalized to zero hour (substrate use), 10 hr [3]: 3.88; 590 nm absorbance normalized to zero hour (substrate use), 11 hr [3]: 3.32
